Numbered stars: 1 amine (or outer) side, 2 acyl side, 3 side chain; on linkers, the order of the positions; unused ones are H or OH. Bridge positions count the residues as written; N and C are the ends. Square brackets hold non-standard residues; d marks the D form. Peptide text beside a SMILES is read from it. * marks the point of attachment. Bip(4'-COOH) = N[C@@H](Cc1ccc(-c2ccc(C(=O)O)cc2)cc1)C(=O)O; Bip(4'-NHAc) = CC(=O)Nc1ccc(-c2ccc(C[C@H](N)C(=O)O)cc2)cc1; Phe(3-CH2NH2) = O=C([C@H](Cc1cccc(CN[*:3])c1)N[*:1])[*:2]; Phe(3-CF3) = N[C@@H](Cc1cccc(C(F)(F)F)c1)C(=O)O; Ala(morpholin-4-yl) = N[C@@H](CN1CCOCC1)C(=O)O; Phe(4-CONH2) = NC(=O)c1ccc(C[C@H](N)C(=O)O)cc1; Phe(4-COOH) = N[C@@H](Cc1ccc(C(=O)O)cc1)C(=O)O; X5 = CS(=O)(=O)NC(=O)C[C@H](N[*:1])C(=O)[*:2]; Phe(3,4-F2) = N[C@@H](Cc1ccc(F)c(F)c1)C(=O)O; Bip = N[C@@H](Cc1ccc(-c2ccccc2)cc1)C(=O)O; Abu(3R-NH2) = C[C@@H](N)[C@H](N)C(=O)O; Phe(3-Me) = Cc1cccc(C[C@H](N)C(=O)O)c1; Abu(3S-NH2) = C[C@H](N)[C@H](N)C(=O)O; Val(3-OH) = CC(C)(O)[C@H](N)C(=O)O; X11 = CC(N)[C@H](N[*:1])C(=O)[*:2]; hPhe = N[C@@H](CCc1ccccc1)C(=O)O; Cha = N[C@@H](CC1CCCCC1)C(=O)O; aThr = C[C@H](O)[C@H](N)C(=O)O; hSer = N[C@@H](CCO)C(=O)O; Carboxymethyl = O=C(O)C*; NMeA = CN[C@@H](C)C(=O)O; Orn = NCCC[C@H](N)C(=O)O; Dab = NCC[C@H](N)C(=O)O; X48 = CN(C)S(=O)(=O)O*
These compounds were tested against T1, Alexa fluor-647 labeled human PD-L1-Ig binding to Jurkat cell line over-expressing human PD-1 (Homo sapiens, UniProt Q15116) (assay: Jurkat-PD-1 Cell Binding High-Content Screening Assay (CBA): Method 3 (Alexa fluor-647 labeled PD-L1-Ig)). Details: Jurkat-PD-1 cells, Alexa fluor-647 labeled PD-L1-Ig 177 nM; head μM; read-out: CBA Method 3 μM.
T1 construct: expressed in transfected cells; host or cells: Jurkat
T1 sequence (Q15116 25-288): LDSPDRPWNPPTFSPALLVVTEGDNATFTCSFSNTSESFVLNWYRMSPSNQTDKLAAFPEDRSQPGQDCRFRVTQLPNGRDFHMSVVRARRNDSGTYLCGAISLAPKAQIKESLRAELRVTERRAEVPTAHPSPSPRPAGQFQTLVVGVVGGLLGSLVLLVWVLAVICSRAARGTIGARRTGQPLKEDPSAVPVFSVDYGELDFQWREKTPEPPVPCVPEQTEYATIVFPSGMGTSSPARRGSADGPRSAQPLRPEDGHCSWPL
Outline: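 Readout by high-content imaging of PFA-fixed, Hoechst-stained cells after 1 h with 177 nM (final) Alexa fluor-647 PD-L1-Ig. Compound was added first to hPD-1 Jurkat cells in RPMI plus 10% FCS for 2 h at 37 °C.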

| Structure (SMILES) | IC50 |
| --- | --- |
| CC(C)C[C@H]1NC(=O)[C@H](C)N(C)C(=O)[C@H](Cc2ccc(C(N)=O)cc2)NC(=O)[C@H](Cc2ccc(-c3ccccc3)cc2)NC(=O)[C@H](Cc2ccc(OCC(=O)O)cc2)NC(=O)[C@H](Cc2cccc(C(F)(F)F)c2)NC(=O)[C@H](CC(=O)O)NC(=O)[C@H](Cc2ccc(C(=O)O)cc2)NC(=O)[C@H](C(C)N)NC(=O)CSC[C@@H](C(=O)N[C@@H](CCN)C(N)=O)NC(=O)[C@H](CO)NC(=O)[C@H](C(C)(C)O)NC(=O)[C@H](CC2CCCCC2)NC(=O)[C@H](CCN)NC1=O (stereo partly drawn) [Example 5147] ({CH2CO}-[X11][Phe(4-COOH)]D[Phe(3-CF3)]Y(Carboxymethyl)[Bip][Phe(4-CONH2)][NMeA][dL][Dab][Cha][Val(3-OH)]SC[Dab]-NH2; thioether N-14) | 0.01 µM |
| Cc1cccc(C[C@@H]2NC(=O)[C@H](CC(=O)O)NC(=O)[C@H](Cc3ccc(O)cc3)NC(=O)[C@H](CN3CCOCC3)NC(=O)CSC[C@@H](C(=O)N[C@@H](CCN)C(N)=O)NC(=O)[C@H](CCC(=O)O)NC(=O)[C@H](CCO)NC(=O)[C@H](CC3CCCCC3)NC(=O)[C@H](CCN)NC(=O)[C@@H](CC(C)C)NC(=O)[C@H](C)N(C)C(=O)[C@H](CCC(N)=O)NC(=O)[C@H](Cc3ccc(-c4ccccc4)cc3)NC(=O)[C@H](Cc3ccc(OCC(=O)O)cc3)NC2=O)c1 [Example 5261] ({CH2CO}-[Ala(morpholin-4-yl)]YD[Phe(3-Me)]Y(Carboxymethyl)[Bip]Q[NMeA][dL][Dab][Cha][hSer]EC[Dab]-NH2; thioether N-14) | 0.06 µM |
| CC(=O)Nc1ccc(-c2ccc(C[C@@H]3NC(=O)[C@H](Cc4cccc(C(F)(F)F)c4)NC(=O)[C@H](CC(=O)NS(C)(=O)=O)NC(=O)[C@H](Cc4ccc(C(N)=O)cc4)NC(=O)[C@H]([C@H](C)O)NC(=O)CSC[C@@H](C(=O)N[C@@H](CCN)C(N)=O)NC(=O)[C@H](CC(N)=O)NC(=O)[C@H](C(C)C)NC(=O)[C@H](CC4CCCCC4)NC(=O)[C@H](CCN)NC(=O)[C@@H](CC(C)C)NC(=O)[C@H](C)N(C)C(=O)[C@H](Cc4ccc(C(N)=O)cc4)NC(=O)[C@H](Cc4ccc(-c5ccccc5)cc4)NC3=O)cc2)cc1 [Example 5115] ({CH2CO}-[aThr][Phe(4-CONH2)][X5][Phe(3-CF3)][Bip(4'-NHAc)][Bip][Phe(4-CONH2)][NMeA][dL][Dab][Cha]VNC[Dab]-NH2; thioether N-14) | 0.28 µM |
| Cc1cccc(C[C@@H]2NC(=O)[C@H](CC(=O)O)NC(=O)[C@H](Cc3ccc(OCC(=O)O)cc3)NC(=O)[C@H](Cc3ccc(F)c(F)c3)NC(=O)CSC[C@@H](C(=O)N[C@@H](CCN)C(N)=O)NC(=O)[C@H](CCCN)NC(=O)[C@H](C(C)C)NC(=O)[C@H](CC3CCCCC3)NC(=O)[C@H](CCN)NC(=O)[C@@H](CC(C)C)NC(=O)[C@H](C)N(C)C(=O)[C@H](CCC(N)=O)NC(=O)[C@H](Cc3ccc(-c4ccccc4)cc3)NC(=O)[C@H](Cc3ccc(C(=O)O)cc3)NC2=O)c1 [Example 5285] ({CH2CO}-[Phe(3,4-F2)]Y(Carboxymethyl)D[Phe(3-Me)][Phe(4-COOH)][Bip]Q[NMeA][dL][Dab][Cha]V[Orn]C[Dab]-NH2; thioether N-14) | 0.3 µM |
| Cc1cccc(C[C@@H]2NC(=O)[C@H](CC(=O)O)NC(=O)[C@H](Cc3ccc(OCC(=O)O)cc3)NC(=O)[C@H](C)NC(=O)CSC[C@@H](C(=O)N[C@@H](CCN)C(N)=O)NC(=O)[C@H](CCC(=O)O)NC(=O)[C@H](C(C)C)NC(=O)[C@H](CC3CCCCC3)NC(=O)[C@H](CCN)NC(=O)[C@@H](CC(C)C)NC(=O)[C@H](C)N(C)C(=O)[C@H](Cc3ccc(OCC(=O)O)cc3)NC(=O)[C@H](Cc3ccc(-c4ccccc4)cc3)NC(=O)[C@H](Cc3ccc(OCC(=O)O)cc3)NC2=O)c1 [Example 5139] ({CH2CO}-AY(Carboxymethyl)D[Phe(3-Me)]Y(Carboxymethyl)[Bip]Y(Carboxymethyl)[NMeA][dL][Dab][Cha]VEC[Dab]-NH2; thioether N-14) | 0.03 µM |
| CC(C)C[C@H]1NC(=O)[C@H](C)N(C)C(=O)[C@H](Cc2ccc(C(N)=O)cc2)NC(=O)[C@H](Cc2ccc(-c3ccccc3)cc2)NC(=O)[C@H](Cc2ccc(C(=O)O)cc2)NC(=O)[C@H](Cc2cccc(C(F)(F)F)c2)NC(=O)[C@H](CC(=O)OS(=O)(=O)N(C)C)NC(=O)[C@H](Cc2ccc(C(=O)O)cc2)NC(=O)[C@H]([C@H](C)N)NC(=O)CSC[C@@H](C(=O)N[C@@H](CCN)C(N)=O)NC(=O)[C@H](CC(N)=O)NC(=O)[C@H](C(C)C)NC(=O)[C@H](CC2CCCCC2)NC(=O)[C@H](CCN)NC1=O [Example 5113] ({CH2CO}-[Abu(3S-NH2)][Phe(4-COOH)]D(X48)[Phe(3-CF3)][Phe(4-COOH)][Bip][Phe(4-CONH2)][NMeA][dL][Dab][Cha]VNC[Dab]-NH2; thioether N-14) | 0.15 µM |
| Cc1cccc(C[C@@H]2NC(=O)[C@H](CC(=O)O)NC(=O)[C@H](Cc3ccc(OCC(=O)O)cc3)NC(=O)[C@H](Cc3cccc(CN)c3)NC(=O)CSC[C@@H](C(=O)N[C@@H](CCN)C(N)=O)NC(=O)[C@H](CCCN)NC(=O)[C@H](C(C)C)NC(=O)[C@H](CC3CCCCC3)NC(=O)[C@H](CCN)NC(=O)[C@@H](CC(C)C)NC(=O)[C@H](C)N(C)C(=O)[C@H](CCC(N)=O)NC(=O)[C@H](Cc3ccc(-c4ccccc4)cc3)NC(=O)[C@H](Cc3ccc(C(=O)O)cc3)NC2=O)c1 [Example 5176] ({CH2CO}-[Phe(3-CH2NH2)]Y(Carboxymethyl)D[Phe(3-Me)][Phe(4-COOH)][Bip]Q[NMeA][dL][Dab][Cha]V[Orn]C[Dab]-NH2; thioether N-14) | 0.01 µM |
| CC(C)C[C@H]1NC(=O)[C@H](C)N(C)C(=O)[C@H](CCC(N)=O)NC(=O)[C@H](Cc2ccc(-c3ccccc3)cc2)NC(=O)[C@H](CCc2ccccc2)NC(=O)[C@H](Cc2cccc(C(F)(F)F)c2)NC(=O)[C@H](CC(=O)O)NC(=O)[C@H](Cc2ccc(OCC(=O)O)cc2)NC(=O)[C@H]([C@@H](C)N)NC(=O)CSC[C@@H](C(=O)N[C@@H](CCN)C(N)=O)NC(=O)[C@H](CCCN)NC(=O)[C@H](C(C)C)NC(=O)[C@H](CC2CCCCC2)NC(=O)[C@H](CCN)NC1=O [Example 5219] ({CH2CO}-[Abu(3R-NH2)]Y(Carboxymethyl)D[Phe(3-CF3)][hPhe][Bip]Q[NMeA][dL][Dab][Cha]V[Orn]C[Dab]-NH2; thioether N-14) | 0.1 µM |
| Cc1cccc(C[C@@H]2NC(=O)[C@H](CC(=O)O)NC(=O)[C@H](Cc3ccc(-c4ccc(C(=O)O)cc4)cc3)NC(=O)[C@H]([C@@H](C)O)NC(=O)CSC[C@@H](C(=O)N[C@@H](CCN)C(N)=O)NC(=O)[C@H](Cc3cnc[nH]3)NC(=O)[C@H](C(C)(C)O)NC(=O)[C@H](CC3CCCCC3)NC(=O)[C@H](CCN)NC(=O)[C@@H](CC(C)C)NC(=O)[C@H](C)N(C)C(=O)[C@H](Cc3ccc(C(=O)O)cc3)NC(=O)[C@H](Cc3ccc(-c4ccccc4)cc3)NC(=O)[C@H](Cc3ccc(-c4ccc(C(=O)O)cc4)cc3)NC2=O)c1 [Example 5131] ({CH2CO}-T[Bip(4'-COOH)]D[Phe(3-Me)][Bip(4'-COOH)][Bip][Phe(4-COOH)][NMeA][dL][Dab][Cha][Val(3-OH)]HC[Dab]-NH2; thioether N-14) | 0.19 µM |
| Cc1cccc(C[C@@H]2NC(=O)[C@H](CC(=O)O)NC(=O)[C@H](Cc3ccc(OCC(=O)O)cc3)NC(=O)[C@H](CC3CCCCC3)NC(=O)CSC[C@@H](C(=O)N[C@@H](CCN)C(N)=O)NC(=O)[C@H](Cc3cnc[nH]3)NC(=O)[C@H](C(C)(C)O)NC(=O)[C@H](CC3CCCCC3)NC(=O)[C@H](CCN)NC(=O)[C@@H](CC(C)C)NC(=O)[C@H](C)N(C)C(=O)[C@H](CCC(N)=O)NC(=O)[C@H](Cc3ccc(-c4ccccc4)cc3)NC(=O)[C@H](CCc3ccccc3)NC2=O)c1 [Example 5277] ({CH2CO}-[Cha]Y(Carboxymethyl)D[Phe(3-Me)][hPhe][Bip]Q[NMeA][dL][Dab][Cha][Val(3-OH)]HC[Dab]-NH2; thioether N-14) | 0.03 µM |

Same assay, conditions: Jurkat-PD-1 cells, Alexa fluor-647 labeled PD-L1-Ig 177 nM; nM; read-out: CBA Method 3

| Structure (SMILES) | IC50 |
| --- | --- |
| CC(=O)Nc1ccc(-c2ccc(C[C@@H]3NC(=O)[C@H](Cc4cccc(C(F)(F)F)c4)NC(=O)[C@H](CC(=O)O)NC(=O)[C@H](Cc4ccc(C(N)=O)cc4)NC(=O)[C@H]([C@H](C)N)NC(=O)CSC[C@@H](C(=O)N[C@@H](CCN)C(N)=O)NC(=O)[C@H](CC(N)=O)NC(=O)[C@H](C(C)C)NC(=O)[C@H](CC4CCCCC4)NC(=O)[C@H](CCN)NC(=O)[C@@H](CC(C)C)NC(=O)[C@H](C)N(C)C(=O)[C@H](Cc4ccc(C(N)=O)cc4)NC(=O)[C@H](Cc4ccc(-c5ccccc5)cc4)NC3=O)cc2)cc1 [Example 5110] ({CH2CO}-[Abu(3S-NH2)][Phe(4-CONH2)]D[Phe(3-CF3)][Bip(4'-NHAc)][Bip][Phe(4-CONH2)][NMeA][dL][Dab][Cha]VNC[Dab]-NH2; thioether N-14) | 0.0088 µM |
| CC(=O)Nc1ccc(-c2ccc(C[C@@H]3NC(=O)[C@H](Cc4cccc(C(F)(F)F)c4)NC(=O)[C@H](CC(=O)O)NC(=O)[C@H](Cc4ccc(C(=O)O)cc4)NC(=O)[C@H](CN4CCOCC4)NC(=O)CSC[C@@H](C(=O)N[C@@H](CCN)C(N)=O)NC(=O)[C@H](CC(N)=O)NC(=O)[C@H](C(C)C)NC(=O)[C@H](CC4CCCCC4)NC(=O)[C@H](CCN)NC(=O)[C@@H](CC(C)C)NC(=O)[C@H](C)N(C)C(=O)[C@H](CCCN)NC(=O)[C@H](Cc4ccc(-c5ccccc5)cc4)NC3=O)cc2)cc1 [Example 5111] ({CH2CO}-[Ala(morpholin-4-yl)][Phe(4-COOH)]D[Phe(3-CF3)][Bip(4'-NHAc)][Bip][Orn][NMeA][dL][Dab][Cha]VNC[Dab]-NH2; thioether N-14) | 0.0047 µM |
| CC(=O)Nc1ccc(-c2ccc(C[C@@H]3NC(=O)[C@H](Cc4cccc(C(F)(F)F)c4)NC(=O)[C@H](CC(=O)O)NC(=O)[C@H](Cc4ccc(C(=O)O)cc4)NC(=O)[C@H](CC(C)C)NC(=O)CSC[C@@H](C(=O)N[C@@H](CCN)C(N)=O)NC(=O)[C@H](CC(N)=O)NC(=O)[C@H](C(C)C)NC(=O)[C@H](CC4CCCCC4)NC(=O)[C@H](CCN)NC(=O)[C@@H](CC(C)C)NC(=O)[C@H](C)N(C)C(=O)[C@H](CCCN)NC(=O)[C@H](Cc4ccc(-c5ccccc5)cc4)NC3=O)cc2)cc1 [Example 5095] ({CH2CO}-L[Phe(4-COOH)]D[Phe(3-CF3)][Bip(4'-NHAc)][Bip][Orn][NMeA][dL][Dab][Cha]VNC[Dab]-NH2; thioether N-14) | 0.0061 µM |

Reference: US20240409585A1, “MACROCYCLIC IMMUNOMODULATORS” (priority 2021, published 2024)
